# Where “and” joins values, the source holds several entries; their conditions need not be identical. Identical values can stand only once.
# Experiments:
# COX-2 = biological target: T1, COX-2 (Mus musculus, UniProt Q05769); assay: Inhibition of LPS-induced COX-2 activity (PGE2 production) in RAW264.7 macrophage cells; format: cell-based; conditions: LPS 1 μg/ml, 16 hr
# T1 construct: endogenous in cells; host or cells: RAW264.7 macrophage cells, LPS-stimulated
# T1 sequence (Q05769 18-604): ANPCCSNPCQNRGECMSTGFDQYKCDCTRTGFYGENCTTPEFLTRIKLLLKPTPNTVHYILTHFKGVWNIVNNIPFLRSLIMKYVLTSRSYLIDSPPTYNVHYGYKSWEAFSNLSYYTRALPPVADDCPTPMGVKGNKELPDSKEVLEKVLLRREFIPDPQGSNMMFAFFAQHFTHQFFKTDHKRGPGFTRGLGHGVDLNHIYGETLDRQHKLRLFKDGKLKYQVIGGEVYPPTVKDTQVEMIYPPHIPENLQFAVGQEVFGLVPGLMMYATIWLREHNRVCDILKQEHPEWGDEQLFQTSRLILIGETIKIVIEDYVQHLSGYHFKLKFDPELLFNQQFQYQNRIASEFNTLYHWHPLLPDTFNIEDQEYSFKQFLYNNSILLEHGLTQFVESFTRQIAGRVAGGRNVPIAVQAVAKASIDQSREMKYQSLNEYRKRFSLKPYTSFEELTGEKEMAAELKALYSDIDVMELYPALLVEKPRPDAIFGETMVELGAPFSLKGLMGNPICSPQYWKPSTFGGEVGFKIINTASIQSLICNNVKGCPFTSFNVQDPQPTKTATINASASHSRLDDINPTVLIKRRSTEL
# Description: If a cell was treated with LPS, the activity of COX-2 increases. On the basis of this fact, to investigate the effect of xanthorrhizol on LPS-induced COX-2 activity, the quantity of PGE2 released from cells was measured as follows.
# RAW264.7 macrophage cells were maintained in DMEM supplemented with penicillin-streptomycin and 10% FBS at 37° C., in 5% CO2 of humidified air. The cells (10×10^5 cells/ml, 200 μl) were allowed to adhere for 4 hr in the presence of aspirin (500 μM) in a 96-well culture plate to inhibit irreversibly COX activity in cells, washed 3 times with media, and then incubated in the fresh medium with 1 μg/ml of LPS. Xanthorrhizol was simultaneously added to each well. After an additional 16 hr incubation, the media were recovered and analyzed by PGE2 enzyme immunometric assay. The medium recovered from each well was added to each well attached anti-PGE2 antibody (Amersham Life Science, Arlington Heights, Ill.) with PGE2-acetylcholineesterase tracer, incubated for 18 hr at room temperature and then washed five times with 0.05% Tween 20-phosphate buffer solution. […] Absorbance at 405 nm was measured. PGE2 in each medium treated with xanthorrhizol was quantified in calibration curve graphed with standard PGE2. […] The percentage inhibition was expressed as [1-(PGE2 level of sample/PGE2 level of vehicle treated−control)]×100.
# HL-60 cells = assay: Apoptosis morphology in HL-60 cells (Hoechst 33258 staining, fluorescence microscopy); format: cell-based, Human; conditions: xanthorrhizol 40 μM, 24 hr
# Description: Human promyelocytic leukemia (HL-60) cells were maintained at 37° C. in a humidified atmosphere of 95% air and 5% CO2 in RPMI 1640 supplemented with 10% (v/v) heat-inactivated fetal bovine serum (FBS). HL-60 cells were cultured in 6-well plate in RPMI 1640 medium containing 10% FBS in the absence or presence of the methanolic extract of Curcuma xanthorrhiza (15 μg/ml) and xanthorrhizol (40 μM) and centrifuged after 24 hr. 4% neutral buffered formaline was added to the cell and the mixture was transferred to slides, which were left at room temperature for dryness. The fixed cells were washed in PBS, air-dried and stained with DNA-specific fluorochrome Hoechest 33258 for 1 min. The adhered cells were washed with PBS, air dried, and mounted with 50% glycerol. The slides were observed by fluorescence microscopy.
# [1] = test system: skin tumor formation induced by DMBA and TPA; assay: Two-stage mouse skin carcinogenesis model (DMBA/TPA); format: in vivo, ICR mice
# Source text: The chemoprotective effect of xanthorrhizol and the methanolic extract of Curcuma xanthorrhiza Roxb. against tumor formation was investigated in multistage mouse carcinogenesis induced by tumor initiator (DMBA) and tumor promoter (TPA).
# To evaluate the inhibitory effect of xanthorrhizol and the methanolic extract of Curcuma xanthoffhiza Roxb. against tumor formation, 30 mice (6 weeks age, female) per an experimental group was used. The dorsal region of ICR mice was shaved with an electric clipper. After a topical application of 0.2 μmol DMBA in 0.2 ml acetone, mice were treated topically with xanthorrhizol or the methanolic extract of Curcuma xanthorrhiza 30 min prior to each topical application of 10 nmol TPA in 0.2 ml acetone which was continued three times weekly for 19 weeks. The negative control was treated with only 0.2 ml acetone. Tumors were counted and recorded biweekly. The results were expressed as the average number of tumors per mouse (tumor multiplicity) and the percentage of tumor-bearing mice (tumor incidence) and are shown at FIG. 3 and FIG. 4. […] FIG. 4 is a photograph representing the inhibitory effect of xanthorrhizol against tumor formation at 19 weeks.
smiles,measurement,setting,value
CC(C)=CCC[C@@H](C)c1ccc(C)c(O)c1 [xanthorrhizol],IC50,COX-2,321 nM and 320 nM
same,percentage inhibition of LPS-induced PGE2 production (COX-2 activity),COX-2; concentration of not less than 1 μg/ml,not less than 98%
same,morphological characteristics of apoptosis,HL-60 cells,distinct chromatin condensation and nuclear fragmentation
same,average number of skin tumors per mouse (tumor multiplicity),"[1]; 6 μmol topical, three times per week for 19 weeks, DMBA/TPA control 15.5",4.0 skin tumors per mouse
same,percentage of tumor-bearing mice (tumor incidence),"[1]; 6 μmol topical, three times per week for 19 weeks, all DMBA/TPA control mice had tumors",57%
same,tumor formation,"[1]; topical application 30 min prior to each TPA, three times weekly for 19 weeks",inhibits tumor formation dose-dependently
